Measurements as given in US8884061B2, “Compositions and methods of use of electron transport system inhibitors” (priority 2006, dated 2014).
Converted amounts (≈) assume the structure as drawn.

Key:
M. tuberculosis H37Rv [1] = test: MIC, colorimetric microtiter plate method with Alamar blue; type: cell-based; settings: Mycobacterium tuberculosis, read-out: MIC (μg/mL) M. tuberculosis
Protocol: Activity Against M. Tuberculosis
The minimum inhibitory concentration (MIC) of compounds were determined against H37Rv by a colorimetric microtiter plate based method with Alamar blue.

MenA = MenA (Mycobacterium tuberculosis, UniProt P9WIP3); test: In vitro assay against MenA (membrane fractions); type: biochemical; settings: membrane fractions from M. tuberculosis; 5 μM farnesyl diphosphate, 50 μM dihydroxynaphthoic acid, pH 8.5; read-out: IC50 (μmol) MenA
Chain of MenA (P9WIP3 whole entry): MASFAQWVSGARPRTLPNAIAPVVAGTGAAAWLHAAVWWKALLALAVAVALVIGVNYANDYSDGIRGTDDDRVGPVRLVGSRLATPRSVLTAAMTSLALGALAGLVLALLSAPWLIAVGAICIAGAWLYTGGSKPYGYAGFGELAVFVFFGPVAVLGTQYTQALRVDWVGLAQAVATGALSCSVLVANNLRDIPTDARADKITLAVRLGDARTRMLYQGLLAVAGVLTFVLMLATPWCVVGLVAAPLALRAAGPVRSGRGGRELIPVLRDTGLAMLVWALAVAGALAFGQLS

M. aurum = test: MIC, agar (7H11) dilution method; type: cell-based; settings: Mycolicibacterium aurum, read-out: Minimum inhibitory concentrations (MIC)
M. avium Flamingo = test: MIC, agar (7H11) dilution method; type: cell-based; settings: Mycobacterium avium, read-out: Minimum inhibitory concentrations (MIC)
M. tuberculosis H37Rv [2] = test: MIC, agar (7H11) dilution method; type: cell-based; settings: Mycobacterium tuberculosis, H37RV, M. tuberculosis H37Rv, read-out: Minimum inhibitory concentrations (MIC)
M. tuberculosis Kurono = test: MIC, agar (7H11) dilution method; type: cell-based; settings: Mycobacterium tuberculosis; M. tuberculosis Kurono; agar (7H11) dilution; read-out: Minimum inhibitory concentrations (MIC)
M. kansasii NIHJ1619 = test: MIC, agar (7H11) dilution method; type: cell-based; settings: Mycobacterium kansasii, read-out: Minimum inhibitory concentrations (MIC)
[3] = system: M. intracellularae ATCC 15984; test: MIC, agar (7H11) dilution method; type: cell-based; settings: read-out: Minimum inhibitory concentrations (MIC)
M. fortuitum NIHJ1615 = test: MIC, agar (7H11) dilution method; type: cell-based; settings: Mycolicibacterium fortuitum, read-out: Minimum inhibitory concentrations (MIC)
M. bovis BCG Tokyo = test: microbe, parasite or virus in culture; type: cell-based; settings: Mycobacterium tuberculosis variant bovis BCG, BCG, read-out: Minimum inhibitory concentrations (MIC)
M. smegmatis Takeo = test: MIC, agar (7H11) dilution method; type: cell-based; settings: Mycolicibacterium smegmatis, read-out: Minimum inhibitory concentrations (MIC)
[4] = table line r8 (2nd of 5 so labelled)
[5] = table line r9 (3rd of 5 so labelled)
[6] = table line r10 (4th of 5 so labelled)
[7] = table line r11 (5th of 5 so labelled)

## C=CCN(C)CCCCCCCOc1ccc(C(=O)c2ccc(Br)cc2)cc1 [Cpd 1, (4-(7-(allyl(methyl)amino)heptyloxy)phenyl)(4-bromophenyl)methanone]
M. tuberculosis H37Rv [1]
  MIC: 5 µg/mL (≈ 11.3 µM)
MenA
  IC50: 12 µM

## NNC(=O)c1ccncc1 [INH, isoniazid, reference compound]
M. aurum
  MIC: 6.25 µg/mL (≈ 45.6 µM)
M. avium Flamingo
  MIC: > 25 µg/mL
M. tuberculosis H37Rv [2]; [4]
  MIC: 0.1 µg/mL (≈ 0.729 µM)
M. tuberculosis H37Rv [2]; [5]
  MIC: > 25 µg/mL
M. tuberculosis H37Rv [2]; [6]
  MIC: 0.05 µg/mL (≈ 0.365 µM)
M. tuberculosis H37Rv [2]; [7]
  MIC: 0.1 µg/mL (≈ 0.729 µM)
M. tuberculosis Kurono
  MIC: 0.05 µg/mL (≈ 0.365 µM)
M. kansasii NIHJ1619
  MIC: 12.5 µg/mL (≈ 91.1 µM)
[3]
  MIC: 12.5 µg/mL (≈ 91.1 µM)
M. fortuitum NIHJ1615
  MIC: 6.25 µg/mL (≈ 45.6 µM)
M. bovis BCG Tokyo
  MIC: 0.1 µg/mL (≈ 0.729 µM)
M. smegmatis Takeo
  MIC: 12.5 µg/mL (≈ 91.1 µM)

## C=CCN(C)CCCCCCCCOc1ccc(C(=O)c2ccc(Br)cc2)cc1 [Cpd 2]
M. tuberculosis H37Rv [1]
  MIC: 4 µg/mL (≈ 8.73 µM)
MenA
  IC50: 10 µM

## C=CCN(C)CCCCCCCCOc1ccc(C(O)c2ccc(Cl)cc2Cl)cc1 (centres unmarked) [Cpd 8]
M. tuberculosis H37Rv [1]
  MIC: 5 µg/mL (≈ 11.1 µM)
MenA
  IC50: 12 µM

## C=CCN(C)CCCCCCCOc1ccc(C(O)c2ccc(Br)cc2)cc1 (centres unmarked) [Cpd 3]
M. tuberculosis H37Rv [1]
  MIC: 5 µg/mL (≈ 11.2 µM)
MenA
  IC50: 15 µM

## C=CCN(C)CCCCCCCCOc1ccc(C(O)c2ccc(Cl)cc2)c(Cl)c1 (centres unmarked) [Cpd 10, (4-(8-(allyl(methyl)amino)octyloxy)-2-chlorophenyl)(4-chlorophenyl)methanol]
M. tuberculosis H37Rv [1]
  MIC: 0.6 µg/mL (≈ 1.33 µM)
MenA
  IC50: < 2.5 µM

## C=CCN(C)CCCCCCCCOc1ccc(C(=O)c2ccc(Cl)cc2)c(O)c1 [Cpd 13, (4-(8-(allyl(methyl)amino)octyloxy)-2-hydroxyphenyl)(4-chlorophenyl)methanone]
M. tuberculosis H37Rv [1]
  MIC: 0.2 µg/mL (≈ 0.465 µM)
MenA
  IC50: < 2.5 µM

## CO[C@H]1/C=C/O[C@@]2(C)Oc3c(C)c(O)c4c(O)c(c(/C=N/N5CCN(C)CC5)c(O)c4c3C2=O)NC(=O)/C(C)=C\C=C\[C@H](C)[C@H](O)[C@@H](C)[C@@H](O)[C@@H](C)[C@H](OC(C)=O)[C@@H]1C [RFP, Rifampicin, reference compound]
M. aurum
  MIC: 0.78 µg/mL (≈ 0.948 µM)
M. avium Flamingo
  MIC: 3.13 µg/mL (≈ 3.8 µM)
M. tuberculosis H37Rv [2]; [4]
  MIC: 0.1 µg/mL (≈ 0.122 µM)
M. tuberculosis H37Rv [2]; [5]
  MIC: 0.2 µg/mL (≈ 0.243 µM)
M. tuberculosis H37Rv [2]; [6]
  MIC: > 25 µg/mL
M. tuberculosis H37Rv [2]; [7]
  MIC: 0.2 µg/mL (≈ 0.243 µM)
M. tuberculosis Kurono
  MIC: 0.1 µg/mL (≈ 0.122 µM)
M. kansasii NIHJ1619
  MIC: 3.13 µg/mL (≈ 3.8 µM)
[3]
  MIC: 3.13 µg/mL (≈ 3.8 µM)
M. fortuitum NIHJ1615
  MIC: > 25 µg/mL
M. bovis BCG Tokyo
  MIC: 0.1 µg/mL (≈ 0.122 µM)
M. smegmatis Takeo
  MIC: > 25 µg/mL

## C=CCN(C)CCCCCCCCOc1ccc(C(O)c2ccc(Cl)cc2)cc1 (centres unmarked) [Cpd 6, (4-(8-(allyl(methyl)amino)octyloxy)phenyl)(4-chlorophenyl)methanol]
M. tuberculosis H37Rv [1]
  MIC: 3 µg/mL (≈ 7.21 µM)
MenA
  IC50: 10 µM

## CN(CCCCCCCCOc1ccc(C(=O)c2ccc(Cl)cc2)c(Cl)c1)Cc1ccccc1 [Cpd 12]
M. tuberculosis H37Rv [1]
  MIC: 12 µg/mL (≈ 24.1 µM)
MenA
  IC50: 13 µM

## C#CCN(C)CCCCCCCCOc1ccc(C(=O)c2ccc(Cl)cc2)c(Cl)c1 [Cpd 11, (2-Chloro-4-(8-(methyl(prop-2-ynyl)amino)octyloxy)phenyl)(4-chlorophenyl)methanone]
M. tuberculosis H37Rv [1]
  MIC: 12 µg/mL (≈ 26.9 µM)
MenA
  IC50: 15 µM

## C=CCN(C)CCCCCCCCOc1ccc(C(=O)c2ccc(Cl)cc2)c(Cl)c1 [Cpd 9]
M. tuberculosis H37Rv [1]
  MIC: 0.6 µg/mL (≈ 1.34 µM)
MenA
  IC50: 4 µM

## C=CCN(C)CCCCCCCCOc1ccc(C(=O)c2ccc(Cl)cc2)cc1 [Cpd 5, (4-(8-(Allyl(methyl)amino)octyloxy)phenyl)(4-chlorophenyl)methanone]
M. tuberculosis H37Rv [1]
  MIC: 0.3 µg/mL (≈ 0.725 µM)
MenA
  IC50: 5 µM

## C=CCN(C)CCCCCCCCOc1ccc(C(=O)c2ccc(Cl)cc2Cl)cc1 [Cpd 7, (4-(8-(Allyl(methyl)amino)octyloxy)phenyl)(2,4-dichlorophenyl)methanone]
M. tuberculosis H37Rv [1]
  MIC: 4 µg/mL (≈ 8.92 µM)
MenA
  IC50: 10 µM

## C=CCN(C)CCCCCCCCOc1ccc(C(O)c2ccc(Br)cc2)cc1 (centres unmarked) [Cpd 4]
M. tuberculosis H37Rv [1]
  MIC: 7 µg/mL (≈ 15.2 µM)
MenA
  IC50: 12 µM
